According to patent US20210087206A1, “MACROCYCLIC KINASE INHIBITORS AND THEIR USE” (TURNING POINT THERAPEUTICS, INC., priority 2017, published 2021):

Experiments:
ROS1 (G2032R) = biological target: T1, ROS1 (G2032R) (Homo sapiens, UniProt P08922, G2032R); experiment: Biochemical kinase assay (Reaction Biology, 33P ATP); details: 10 μM ATP
T1 construct: purchased Reaction Biology Corporation
Description: (§1) Biochemical Kinase Assay Method
(§2) The biochemical kinase assay was performed at Reaction Biology Corporation (www.reactionbiology.com, Malvern, Pa.) following the procedures described in the reference (Anastassiadis T, et al Nat Biotechnol. 2011, 29, 1039). Specific kinase/substrate pairs along with required cofactors were prepared in reaction buffer; 20 mM Hepes pH 7.5, 10 mM MgC2, 1 mM EGTA, 0.02% Brij35, 0.02 mg/ml BSA, 0.1 mM Na3VO4, 2 mM DTT, 1% DMSO. Compounds were delivered into the reaction, followed ˜20 min later by addition of a mixture of ATP (Sigma, St. Louis Mo.) and ^33P ATP (Perkin Elmer, Waltham Mass.) to a final concentration of 10 μM. Reactions were carried out at room temperature for 120 min, followed by spotting of the reactions onto P81 ion exchange filter paper (Whatman Inc., Piscataway, N.J.). Unbound phosphate was removed by extensive washing of filters in 0.75% phosphoric acid. […] IC50 values and curve fits were obtained using Prism (GraphPad Software).

ALK (G1202R) = biological target: T2, ALK (G1202R) (Homo sapiens, UniProt Q9UM73, G1202R); experiment: as above; details: 10 μM ATP
T2 construct: purchased Reaction Biology Corporation
Description: as §1, §2

ROS1 = biological target: T3, ROS1 (Homo sapiens, UniProt P08922); experiment: as above; details: 10 μM ATP
T3 construct: purchased Reaction Biology Corporation
Description: as §1, §2

FGFR3 = biological target: T4, FGFR3 (Homo sapiens, UniProt P22607); experiment: as above; details: 10 μM ATP
T4 construct: purchased Reaction Biology Corporation
Description: as §1, §2

FGFR2 = biological target: T5, FGFR2 (Homo sapiens, UniProt P21802); experiment: as above; details: 10 μM ATP
T5 construct: purchased Reaction Biology Corporation
Description: as §1, §2

ALK = biological target: T6, ALK (Homo sapiens, UniProt Q9UM73); experiment: as above; details: 10 μM ATP
T6 construct: purchased Reaction Biology Corporation
Description: as §1, §2

FGFR1(V561M) = biological target: T7, FGFR1(V561M) (Homo sapiens, UniProt P11362, V561M); experiment: as above; details: 10 μM ATP
T7 construct: purchased Reaction Biology Corporation
Description: as §1, §2

FGFR1 = biological target: T8, FGFR1 (Homo sapiens, UniProt P11362); experiment: as above; details: 10 μM ATP
T8 construct: purchased Reaction Biology Corporation
Description: as §1, §2

ALK (L1196M) = biological target: T9, ALK (L1196M) (Homo sapiens, UniProt Q9UM73, L1196M); experiment: as above; details: 10 μM ATP
T9 construct: purchased Reaction Biology Corporation
Description: as §1, §2

FGFR4 = biological target: T10, FGFR4 (Homo sapiens, UniProt P22455); experiment: as above; details: 10 μM ATP
T10 construct: purchased Reaction Biology Corporation
Description: as §1, §2

KG-1 cell (OP2-FGFR1) = experiment: Cell proliferation assay (CellTiter-Glo); assay type: cell-based; details: Homo sapiens, anti-cell proliferation, 72 hours
How it was run: (§3)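 Cells seeded 24 h, then exposed to compounds for 72 h at 37° C., 5% CO2. Proliferation read by CellTiter-Glo luminescent ATP detection; IC50 from dose-response fits.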

KM12 (TPM3-TRKA) = experiment: Cell proliferation assay (CellTiter-Glo); assay type: cell-based; details: Homo sapiens, anti-cell proliferation, 72 hours
How it was run: as §3

BaF3 EML4-ALK = biological target: T11, BaF3 EML4-ALK (Homo sapiens, UniProt Q9UM73); experiment: Cell proliferation assay (CellTiter-Glo); assay type: cell-based; details: anti-cell proliferation, 72 hours
T11 construct: The EML4-ALK gene (variant 1) was synthesized at GenScript and cloned into pCDH-CMV-MCS-EF1-Puro plasmid (System Biosciences, Inc); fused on or other part: EML4 N-terminal part (variant 1: exons 1-13, with the coiled-coil that oligomerises the fusion) fused to the intracellular part of ALK, which contains the kinase domain; Q9HC35 (Echinoderm microtubule-associated protein-like 4)
How it was run: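 Ba/F3 cells were lentivirally transduced with EML4-ALK variant 1 and selected for puromycin resistance and IL-3-independent growth. Proliferation was measured by CellTiter-Glo ATP luminescence to give IC50.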

[1] = amide bond; 13-membered ring; 3 steps

T11 sequence (Q9UM73 whole entry, stated change not applied, the tested form may be a part): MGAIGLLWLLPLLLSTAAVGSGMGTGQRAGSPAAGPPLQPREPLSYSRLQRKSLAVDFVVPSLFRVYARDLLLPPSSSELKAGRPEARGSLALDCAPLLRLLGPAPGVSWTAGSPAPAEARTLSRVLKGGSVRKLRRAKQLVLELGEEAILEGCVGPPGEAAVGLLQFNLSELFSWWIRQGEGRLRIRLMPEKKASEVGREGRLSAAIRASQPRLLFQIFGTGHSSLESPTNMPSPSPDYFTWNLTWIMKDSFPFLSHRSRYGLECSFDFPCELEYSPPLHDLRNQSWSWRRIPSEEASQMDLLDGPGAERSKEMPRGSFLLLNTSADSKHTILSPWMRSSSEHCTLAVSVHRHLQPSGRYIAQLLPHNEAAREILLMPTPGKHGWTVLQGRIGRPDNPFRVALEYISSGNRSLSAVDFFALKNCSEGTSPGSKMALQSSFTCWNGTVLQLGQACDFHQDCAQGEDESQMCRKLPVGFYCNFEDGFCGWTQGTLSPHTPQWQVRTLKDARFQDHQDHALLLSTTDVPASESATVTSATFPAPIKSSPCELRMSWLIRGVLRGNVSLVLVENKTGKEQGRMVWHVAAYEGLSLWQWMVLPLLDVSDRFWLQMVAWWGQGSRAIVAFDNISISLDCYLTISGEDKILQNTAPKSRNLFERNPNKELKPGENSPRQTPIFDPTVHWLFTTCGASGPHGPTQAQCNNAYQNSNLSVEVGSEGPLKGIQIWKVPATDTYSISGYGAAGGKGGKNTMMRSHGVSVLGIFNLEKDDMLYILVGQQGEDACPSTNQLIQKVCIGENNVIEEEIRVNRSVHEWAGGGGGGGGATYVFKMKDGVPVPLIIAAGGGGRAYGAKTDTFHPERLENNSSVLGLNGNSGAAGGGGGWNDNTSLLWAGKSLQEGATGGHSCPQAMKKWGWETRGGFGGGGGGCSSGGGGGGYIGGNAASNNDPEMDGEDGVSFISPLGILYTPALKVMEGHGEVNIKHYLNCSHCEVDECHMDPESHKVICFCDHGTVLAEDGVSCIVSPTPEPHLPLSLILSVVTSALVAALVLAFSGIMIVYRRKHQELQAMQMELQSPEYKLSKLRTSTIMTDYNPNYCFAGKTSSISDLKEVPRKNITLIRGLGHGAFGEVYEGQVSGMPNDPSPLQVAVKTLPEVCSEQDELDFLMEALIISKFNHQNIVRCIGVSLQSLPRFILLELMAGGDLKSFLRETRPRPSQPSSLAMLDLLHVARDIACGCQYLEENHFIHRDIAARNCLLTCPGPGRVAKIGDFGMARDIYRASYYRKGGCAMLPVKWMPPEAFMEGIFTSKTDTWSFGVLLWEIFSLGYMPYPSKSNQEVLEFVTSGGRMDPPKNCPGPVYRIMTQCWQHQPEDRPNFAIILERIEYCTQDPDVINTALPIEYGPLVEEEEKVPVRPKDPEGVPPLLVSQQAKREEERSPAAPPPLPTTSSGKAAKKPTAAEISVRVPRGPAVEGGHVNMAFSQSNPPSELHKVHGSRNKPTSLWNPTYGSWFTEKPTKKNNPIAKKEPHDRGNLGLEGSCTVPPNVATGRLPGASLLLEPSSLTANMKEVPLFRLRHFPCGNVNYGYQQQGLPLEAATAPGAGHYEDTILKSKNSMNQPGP
T10 sequence (P22455 22-802): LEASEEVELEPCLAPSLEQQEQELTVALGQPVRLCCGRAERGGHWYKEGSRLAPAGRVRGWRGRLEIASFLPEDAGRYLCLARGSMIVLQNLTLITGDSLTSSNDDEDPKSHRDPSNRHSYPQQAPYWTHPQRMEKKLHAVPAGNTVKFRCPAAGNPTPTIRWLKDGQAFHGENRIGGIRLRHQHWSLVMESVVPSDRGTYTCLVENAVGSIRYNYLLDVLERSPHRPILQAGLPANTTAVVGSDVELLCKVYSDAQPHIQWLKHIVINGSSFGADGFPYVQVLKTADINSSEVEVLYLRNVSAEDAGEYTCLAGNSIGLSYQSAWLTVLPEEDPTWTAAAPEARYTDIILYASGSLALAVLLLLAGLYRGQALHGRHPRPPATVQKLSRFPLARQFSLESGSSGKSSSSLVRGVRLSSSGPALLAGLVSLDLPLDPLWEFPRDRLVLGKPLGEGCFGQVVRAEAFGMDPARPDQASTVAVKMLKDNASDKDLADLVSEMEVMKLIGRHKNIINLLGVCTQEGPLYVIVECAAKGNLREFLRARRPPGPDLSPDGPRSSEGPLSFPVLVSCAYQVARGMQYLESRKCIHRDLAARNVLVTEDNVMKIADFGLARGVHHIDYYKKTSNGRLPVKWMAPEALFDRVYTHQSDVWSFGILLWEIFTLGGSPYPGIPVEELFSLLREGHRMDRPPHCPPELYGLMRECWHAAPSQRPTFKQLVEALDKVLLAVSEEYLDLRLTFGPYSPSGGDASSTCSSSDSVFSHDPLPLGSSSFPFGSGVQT
T6 sequence (Q9UM73 19-1620): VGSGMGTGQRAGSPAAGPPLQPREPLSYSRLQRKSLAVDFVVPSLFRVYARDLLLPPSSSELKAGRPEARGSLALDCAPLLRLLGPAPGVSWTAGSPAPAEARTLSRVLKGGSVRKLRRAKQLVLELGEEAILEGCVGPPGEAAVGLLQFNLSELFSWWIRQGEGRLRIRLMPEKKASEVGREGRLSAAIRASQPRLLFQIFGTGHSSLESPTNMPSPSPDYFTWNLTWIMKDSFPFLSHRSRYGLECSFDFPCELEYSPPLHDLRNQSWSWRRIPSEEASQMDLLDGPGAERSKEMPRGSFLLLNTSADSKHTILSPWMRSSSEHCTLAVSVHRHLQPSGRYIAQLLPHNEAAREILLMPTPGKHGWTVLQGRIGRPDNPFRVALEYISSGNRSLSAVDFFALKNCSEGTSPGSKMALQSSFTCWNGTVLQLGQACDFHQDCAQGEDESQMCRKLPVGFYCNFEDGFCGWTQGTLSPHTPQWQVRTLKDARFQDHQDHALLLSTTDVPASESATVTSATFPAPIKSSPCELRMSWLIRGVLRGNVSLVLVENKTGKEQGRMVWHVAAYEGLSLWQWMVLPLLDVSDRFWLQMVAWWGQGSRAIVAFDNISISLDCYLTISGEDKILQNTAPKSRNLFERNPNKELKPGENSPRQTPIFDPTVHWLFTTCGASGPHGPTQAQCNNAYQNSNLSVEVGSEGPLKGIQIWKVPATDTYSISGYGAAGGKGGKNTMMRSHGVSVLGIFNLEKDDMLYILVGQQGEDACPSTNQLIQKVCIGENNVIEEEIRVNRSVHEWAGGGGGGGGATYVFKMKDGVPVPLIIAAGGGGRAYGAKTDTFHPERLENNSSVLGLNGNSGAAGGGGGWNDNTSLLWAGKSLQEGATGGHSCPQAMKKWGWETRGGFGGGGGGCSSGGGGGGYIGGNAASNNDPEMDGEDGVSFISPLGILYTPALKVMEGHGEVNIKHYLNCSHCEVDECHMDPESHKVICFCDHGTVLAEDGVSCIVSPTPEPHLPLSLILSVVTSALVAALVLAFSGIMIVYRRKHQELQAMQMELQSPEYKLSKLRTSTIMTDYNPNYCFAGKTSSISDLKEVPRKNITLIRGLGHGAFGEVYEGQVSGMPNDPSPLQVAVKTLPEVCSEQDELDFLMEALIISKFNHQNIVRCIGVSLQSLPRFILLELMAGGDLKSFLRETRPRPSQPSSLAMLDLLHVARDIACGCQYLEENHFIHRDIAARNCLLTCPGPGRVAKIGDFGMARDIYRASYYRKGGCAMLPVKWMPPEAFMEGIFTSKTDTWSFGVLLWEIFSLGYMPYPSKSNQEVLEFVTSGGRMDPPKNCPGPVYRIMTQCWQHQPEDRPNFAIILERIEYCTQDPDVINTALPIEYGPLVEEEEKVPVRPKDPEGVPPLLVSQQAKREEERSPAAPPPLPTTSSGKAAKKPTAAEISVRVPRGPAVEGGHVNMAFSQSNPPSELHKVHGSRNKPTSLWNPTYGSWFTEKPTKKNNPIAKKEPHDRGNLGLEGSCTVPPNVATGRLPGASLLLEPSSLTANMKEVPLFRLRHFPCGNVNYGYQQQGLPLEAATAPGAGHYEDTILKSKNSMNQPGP
T8 sequence (P11362 22-822): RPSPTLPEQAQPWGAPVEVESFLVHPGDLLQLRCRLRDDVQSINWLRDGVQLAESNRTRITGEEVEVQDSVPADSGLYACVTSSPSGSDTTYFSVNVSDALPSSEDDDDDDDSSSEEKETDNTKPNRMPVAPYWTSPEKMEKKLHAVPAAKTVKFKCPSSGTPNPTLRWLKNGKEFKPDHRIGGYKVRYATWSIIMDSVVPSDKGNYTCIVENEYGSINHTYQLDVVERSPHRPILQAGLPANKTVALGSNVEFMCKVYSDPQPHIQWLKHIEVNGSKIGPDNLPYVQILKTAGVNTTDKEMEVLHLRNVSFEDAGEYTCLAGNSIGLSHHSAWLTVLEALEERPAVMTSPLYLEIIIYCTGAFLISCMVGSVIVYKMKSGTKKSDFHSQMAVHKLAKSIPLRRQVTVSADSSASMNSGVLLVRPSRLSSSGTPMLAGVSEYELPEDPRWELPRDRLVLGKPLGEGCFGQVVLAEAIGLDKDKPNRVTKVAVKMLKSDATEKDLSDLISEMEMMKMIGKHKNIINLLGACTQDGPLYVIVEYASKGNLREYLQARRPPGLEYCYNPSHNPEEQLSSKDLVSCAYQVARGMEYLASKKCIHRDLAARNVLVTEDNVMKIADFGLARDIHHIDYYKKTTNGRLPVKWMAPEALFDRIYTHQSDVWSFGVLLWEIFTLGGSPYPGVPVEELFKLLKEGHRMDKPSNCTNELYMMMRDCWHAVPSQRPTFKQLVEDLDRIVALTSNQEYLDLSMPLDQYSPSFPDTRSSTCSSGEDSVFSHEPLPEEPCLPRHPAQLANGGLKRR
T7 sequence (P11362 22-822 V561M): as the sequence (P11362 22-822) above, with V540M counted along it
T9 sequence (Q9UM73 19-1620 L1196M): as the sequence (Q9UM73 19-1620) above, with L1178M counted along it
T2 sequence (Q9UM73 19-1620 G1202R): as the sequence (Q9UM73 19-1620) above, with G1184R counted along it

Compound | IC50 (KG-1 cell (OP2-FGFR1)) | IC50 (KM12 (TPM3-TRKA)) | IC50 (BaF3 EML4-ALK) | further results
C[C@@H]1COc2cn3ncc4c3nc2N1Cc1cc(F)cc(F)c1O[C@@H](C)CNC4=O [Compound 7, (4R,12S)-8,10-difluoro-4,12-dimethyl-3,4,13,14-tetrahydro-6H-18,1-(metheno)[1,4]oxazino[3,4-i]pyrazolo[4,3-f][1,4,8,10]benzoxatriazacyclotridecin-15(12H)-one] | 145 nM | 0.2 nM | 18.6 nM | IC50 (ROS1 (G2032R)): 0.678 nM; IC50 (ALK (G1202R)): 1.25 nM; IC50 (ROS1): 0.111 nM; IC50 (FGFR3): 30.5 nM; IC50 (FGFR2): 14.7 nM; IC50 (ALK): 0.853 nM; IC50 (FGFR1(V561M)): 137 nM; IC50 (FGFR1): 53 nM; IC50 (ALK (L1196M)): 0.358 nM; IC50 (FGFR4): 88.4 nM
(4R,13R)-8-fluoro-4,13-dimethyl-3,4,13,14-tetrahydro-6H-18,1-(metheno)[1,4]oxazino[3,4-i]pyrazolo[4,3-f]pyrido[3,2-l][1,4,8,10]oxatriazacyclotridecin-15(12H)-one |  |  |  | ring closure, isolated yield [1]: 86%
(5R,13S)-9-fluoro-5,13-dimethyl-4,5,14,15-tetrahydro-3H,7H-19,1-(metheno)[1,4]oxazepino[3,4-i]pyrazolo[4,3-f]pyrido[3,2-l][1,4,8,10]oxatriazacyclotridecin-16(13H)-one |  |  |  | ring closure, isolated yield [1]: 79%
CC[C@@H]1COc2cn3ncc4c3nc2N1Cc1cc(F)cnc1OCC1(CC1)NC4=O [Compound 72, (4′R)-4′-ethyl-8′-fluoro-3′H,4′H,6′H,12′H,14′H,15′H-spiro[cyclopropane-1,13′-[2,11]dioxa[5,10,14,17,18,19]hexaaza-[18,1](metheno)[1,4]oxazino-[3,4-i]pyrazolo[4,3-f]pyrido[3,2-l][1,4,8,10]oxatriazacyclotridecin]-15′-one] | 3.9 nM | < 0.2 nM | 18.8 nM | 
C[C@@H]1COc2ncc(F)cc2CN2CC(F)(F)COc3cn4ncc(c4nc32)C(=O)N1 [Compound 74, (14R)-4,4,9-trifluoro-14-methyl-4,5,14,15-tetrahydro-3H,7H-19,1-(metheno)[1,4]oxazepino[3,4-i]-pyrazolo[4,3-f]pyrido[3,2-l] [1,4,8,10]oxatriazacyclotridecin-16(13H)-one] | 3000 nM | 84 nM | > 10000 nM | 
C[C@@H]1COc2cn3ncc4c3nc2N1Cc1cc(F)cnc1OC[C@H](C)NC4=O [Compound 51, (4R,13S)-8-fluoro-4,13-dimethyl-3,4,13,14-tetrahydro-6H-18,1-(metheno)[1,4]oxazino[3,4-i]-pyrazolo[4,3-f]pyrido[3,2-l] [1,4,8,10]oxatriazacyclotridecin-15(12H)-one] | 101 nM | < 0.2 nM | 233 nM | 
C[C@@H]1CCOc2cn3ncc4c3nc2N1Cc1cc(F)ccc1O[C@@H](C)CNC4=O [Compound 19, (5R,13S)-9-fluoro-5,13-dimethyl-4,5,14,15-tetrahydro-3H,7H-19,1-(metheno)[1,4]oxazepino[3,4-i]-pyrazolo[4,3-f][1,4,8,10]benzo-xatriazacyclotridecin-16(13H)-one] | 9950 nM | < 0.2 nM | 6220 nM | 
C[C@@H]1COc2cn3ncc4c3nc2N1Cc1cc(F)cnc1O[C@H]1CCC[C@@H]1NC4=O [Compound 53, (8R,15aS,18aS)-12-fluoro-8-methyl-7,8,15a,16,17,18,18a, 19-octahydro-10H,20H-3,5-(metheno)cyclopenta[b][1,4]-oxazino[3,4-i]pyrazolo[4,3-f]-pyrido[3,2-l][1,4,8,10]oxatriaza-cyclotridecin-20-one] | 183 nM | < 0.2 nM | 113 nM | 
C[C@@H]1COc2cn3ncc4c3nc2N1Cc1cc(F)cnc1OC[C@@H](C(F)(F)F)NC4=O [Compound 85, (4R,13S)-8-fluoro-4-methyl-13-(trifluoromethyl)-3,4,13,14-tetrahydro-6H-18,1-(metheno)-[1,4]oxazino[3,4-i]pyrazolo[4,3-f]pyridol[3,2-l][1,4,8,10]oxatriaza-cyclotridecin-15(12H)-one] | 17.3 nM | < 0.2 nM | 12.7 nM | 
C[C@@H]1COc2cn3ncc4c3nc2N1Cc1cc(F)cnc1OCC(C)(C)CNC4=O [Compound 55, (16R)-12-fluoro-7,7,16-trimethyl-5,6.7,8,16,17-hexahydro-4H,14H-1,19-(metheno)[1,4]oxazino[4,3-e]pyrazolo[3,4-h]pyrido[2,3-b] [1,5,7,11]oxatriazacyclotetradecin-4-one] | 4.2 nM | < 0.2 nM | 14.8 nM | 
C[C@H]1CNC(=O)c2cnn3cc4c(nc23)N(Cc2cc(F)ccc2O1)[C@@H](C)CO4 [Compound 4, (4S,12S)-8-fluoro-4,12-dimethyl-3,4,13,14-tetrahydro-6H-18,1-(metheno)[1,4]oxazino[3,4-i]pyrazolo[4,3-f][1,4,8,10]benzoxatriazacyclotridecin-15(12H)-one] | > 10000 nM | 0.2 nM | > 10000 nM | 
C[C@@H]1COc2cn3ncc4c3nc2N1Cc1cc(F)ccc1O[C@@H](C)CNC4=O [Compound 5, (4R,12S)-8-fluoro-4,12-dimethyl-3,4,13,14-tetrahydro-6H-18,1-(metheno)[1,4]oxazino[3,4-i]-pyrazolo[4,3-f][1,4,8,10]benzo-xatriazacyclotridecin-15(12H)-one] | 194 nM | 0.2 nM | 37.7 nM | 
C[C@H]1CNC(=O)c2cnn3cc4c(nc23)N(Cc2cc(F)ccc2O1)[C@H](COCc1ccccc1)CO4 [Compound 11, (4R,12S)-4-[(benzyloxy)methyl)-8-fluoro-12-methyl-3,4,13,14-tetrahydro-6H-18,1-(metheno)-[1,4]oxazino[3,4-i]pyrazolo[4,3-f][1,4,8,10]benzoxatriazacyclo-tridecin-15(12H)-one] | 4000 nM | 91.1 nM | 3170 nM | 
C[C@@H]1COc2cn3ncc4c3nc2N1Cc1cc(F)cnc1OCC1(CC1)NC4=O [Compound 34, (4′R)-8′-fluoro-4′-methyl-3′H,4′H,6′H,12′H,14′H,15′H-spiro[cyclopropane-1,13′-[2,11]dioxa[5,10,14,17,18,19]hexaaza[18,1](metheno)[1,4]oxazino[3,4-i]pyrazolo[4,3-f]pyrido[3,2-l][1,4,8,10]oxatriazacyclotridecin]-15′-one] | 12.5 nM | < 0.2 nM | 23.7 nM | 
C[C@@H]1COc2ncc(F)cc2CN2c3nc4c(cnn4cc3OCC23CCC3)C(=O)N1 [Compound 58, (13′R)-8′-fluoro-13′-methyl-3′H,6′H,12′H,13′H,14′H,15′H-spiro[cyclobutane-1,4′-[2,11]-dioxa[5,10,14,17,18,19]hexaaza-[18,1](metheno)[1,4]oxazino-[3,4-i]pyrazolo[4,3-f]pyrido-[3,2-l][1,4,8,10]oxatriazacyclo-tridecin]-15′-one] | 1620 nM | < 0.2 nM | 203 nM | 
